# From patent publication US20240199587A1, “HETEROCYCLIC COMPOUNDS” (Hoffmann-La Roche Inc., priority 2021, published 2024)
# pIC50: −log10 of the molar value.
# Biological target: T1, MAGL (Homo sapiens, UniProt Q99685)
# T1 sequence (Q99685 1-303): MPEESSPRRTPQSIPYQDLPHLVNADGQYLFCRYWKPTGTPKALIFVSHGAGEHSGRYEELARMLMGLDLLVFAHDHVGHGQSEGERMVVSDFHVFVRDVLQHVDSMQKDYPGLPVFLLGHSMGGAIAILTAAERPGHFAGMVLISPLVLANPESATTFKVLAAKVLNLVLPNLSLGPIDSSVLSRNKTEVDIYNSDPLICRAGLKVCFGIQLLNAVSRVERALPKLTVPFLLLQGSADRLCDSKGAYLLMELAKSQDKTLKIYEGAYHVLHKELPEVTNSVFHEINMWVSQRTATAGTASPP
# Experiment: 2-AG assay (MAGL inhibitory activity, hydrolysis of 2-arachidonoylglycerol to arachidonic acid followed by mass spectrometry)
# Type: biochemical
# Conditions: 8 μM 2-arachidonoylglycerol, 15 min pre-incubation, 30 min incubation at RT, RapidFire MS readout
# Summary of the method: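 Human MAGL ([…] final) pre-incubated 15 min at RT with compound in 50 mM TRIS, 1 mM EDTA, 0.01% Tween-20, 2.5% DMSO; 8 μM 2-AG then added for 30 min at RT. Acetonitrile quench with d8-arachidonic acid; arachidonic acid measured by RapidFire SPE–MS/MS, activity from arachidonic acid/d8 ratio.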
row,SMILES,pIC50
1,"O=C(N1CC(OCc2ccc(OC(F)(F)F)cc2F)C1)N1CC2(CC(n3cnc(C4CC4)n3)C2)C1 [Example 75, (6-(3-cyclopropyl-1H-1,2,4-triazol-1-yl)-2-azaspiro[3.3]heptan-2-yl)(3-((2-fluoro-4-(trifluoromethoxy)ben-zyl)oxy)azetidin-1-yl)methanone]",8.57
2,"O=C(N1CC(OCc2cc(F)cc(C(F)(F)F)c2)C1)N1CC2(CC(n3cnc(C4CC4)n3)C2)C1 [Example 76, (6-(3-cyclopropyl-1H-1,2,4-triazol-1-yl)-2-azaspiro[3.3]heptan-2-yl)(3-((3-fluoro-5-(trifluoromethyl)benzyl)oxy)azetidin-1-yl)methanone]",8.66
3,"O=C(N1CC(OCc2ccc(F)cc2Cl)C1)N1CC2(CC(n3cnc(C4CC4)n3)C2)C1 [Example 77, (3-((2-chloro-4-fluorobenzyl)oxy)azetidin-1-yl)(6-(3-cyclopropyl-1H-1,2,4-triazol-1-yl)-2-azaspiro[3.3]heptan-2-yl)methanone]",8.04
4,"O=C(N1CC(OCc2ccc(F)cc2C(F)(F)F)C1)N1CC2(CC(n3cnc(C4CC4)n3)C2)C1 [Example 78, (6-(3-cyclopropyl-1H-1,2,4-triazol-1-yl)-2-azaspiro[3.3]heptan-2-yl)(3-((4-fluoro-2-(trifluoromethyl)benzyl)oxy)azetidin-1-yl)methanone]",7.91
5,"O=C(N1CC2(CC(Oc3cc(F)ccc3F)C2)C1)N1CC2(CC(n3cnc(C4CC4)n3)C2)C1 [Example 79, (6-(3-cyclopropyl-1H-1,2,4-triazol-1-yl)-2-azaspiro[3.3]heptan-2-yl)(6-(2,5-difluorophenoxy)-2-azaspiro[3.3]heptan-2-yl)methanone]",8.89
6,"O=C(N1CC2(CC(Oc3ccc(C(F)(F)F)nc3)C2)C1)N1CC2(CC(n3cnc(C4CC4)n3)C2)C1 [Example 80, (6-(3-cyclopropyl-1H-1,2,4-triazol-1-yl)-2-azaspiro[3.3]heptan-2-yl)(6-((6-(trifluoromethyl)pyridin-3-yl)oxy)-2-azaspiro[3.3]heptan-2-yl)methanone]",8.66
7,"O=C(N1CC2(CC(Oc3cncc(C(F)(F)F)c3)C2)C1)N1CC2(CC(n3cnc(C4CC4)n3)C2)C1 [Example 81, (6-(3-cyclopropyl-1H-1,2,4-triazol-1-yl)-2-azaspiro[3.3]heptan-2-yl)(6-((5-(trifluoromethyl)pyridin-3-yl)oxy)-2-azaspiro[3.3]heptan-2-yl)methanone]",8.74
8,"O=C(N1CC2(CC(Oc3cncc(Cl)c3)C2)C1)N1CC2(CC(n3cnc(C4CC4)n3)C2)C1 [Example 82, (6-((5-chloropyridin-3-yl)oxy)-2-azaspiro[3.3]heptan-2-yl)(6-(3-cyclopropyl-1H-1,2,4-triazol-1-yl)-2-azaspiro[3.3]heptan-2-yl)methanone]",8.43
9,"O=C(N1CC2(CC(Oc3ccc(Cl)nc3)C2)C1)N1CC2(CC(n3cnc(C4CC4)n3)C2)C1 [Example 83, (6-((6-chloropyridin-3-yl)oxy)-2-azaspiro[3.3]heptan-2-yl)(6-(3-cyclopropyl-1H-1,2,4-triazol-1-yl)-2-azaspiro[3.3]heptan-2-yl)methanone]",8.28
10,"O=C(N1CC(c2ccc(OC(F)(F)F)cc2Cl)C1)N1CC2(CC(n3cnc(C4CC4)n3)C2)C1 [Example 84, [3-[2-chloro-4-(trifluoromethoxy)phenyl]azetidin-1-yl]−[6-(3-cyclopropyl-1,2,4-triazol-1-yl)-2-azaspiro[3.3]heptan-2-yl]methanone]",9.22
11,"O=C(N1CC(c2cc(F)c(OC(F)(F)F)c(F)c2)C1)N1CC2(CC(n3cnc(C4CC4)n3)C2)C1 [Example 85, [6-(3-cyclopropyl-1,2,4-triazol-1-yl)-2-azaspiro[3.3]heptan-2-yl]-[3-[3,5-difluoro-4-(trifluoromethoxy)phenyl]azetidin-1-yl]methanone]",9.40
12,"O=C(N1CC(c2ccc(OC(F)(F)F)cc2F)C1)N1CC2(CC(n3cnc(C4CC4)n3)C2)C1 [Example 86, [6-(3-cyclopropyl-1,2,4-triazol-1-yl)-2-azaspiro[3.3]heptan-2-yl]-[3-[2-fluoro-4-(trifluoromethoxy)phenyl]azetidin-1-yl]methanone]",9.40
13,"CC(C)(C)c1nc(C2CN(C(=O)N3CC4(CC(n5cnc(C6CC6)n5)C4)C3)C2)cs1 [Example 87, [3-(2-tert-butylthiazol-4-yl)azetidin-1-yl]-[6-(3-cyclopropyl-1,2,4-triazol-1-yl)-2-azaspiro[3.3]heptan-2-yl]methanone]",8.19
14,"CC(C)(C)Cc1nc(-c2ccc(C(=O)N3CC4(CC(n5cnc(C6CC6)n5)C4)C3)cc2)no1 [Example 88, [6-(3-cyclopropyl-1,2,4-triazol-1-yl)-2-azaspiro[3.3]heptan-2-yl]−[4-[5-(2,2-dimethylpropyl)-1,2,4-oxadiazol-3-yl]phenyl]methanone]",8.96
15,"CC(C)(C)c1nc(-c2ccc(C(=O)N3CC4(CC(n5cnc(C6CCC6)n5)C4)C3)cc2)no1 [Example 90, [4-(5-tert-butyl-1,2,4-oxadiazol-3-yl)phenyl]−[6-(3-cyclobutyl-1,2,4-triazol-1-yl)-2-azaspiro[3.3]heptan-2-yl]methanone]",8.40
16,"O=C(N1CC(C#Cc2ccc(OC(F)F)cc2)C1)N1CC2(CC(n3cnc(C4CC4)n3)C2)C1 [Example 92, [6-(3-cyclopropyl-1,2,4-triazol-1-yl)-2-azaspiro[3.3]heptan-2-yl]-[3-[2-[4-(difluoromethoxy)phenyl]ethynyl]azetidin-1-yl]methanone]",7.93
17,"O=C(N1CC(Oc2cccc(C3CC3)c2Cl)C1)N1CC2(CC(n3cnc(C4CC4)n3)C2)C1 [Example 94, (3-(2-chloro-3-cyclopropylphenoxy)azetidin-1-yl)(6-(3-cyclopropyl-1H-1,2,4-triazol-1-yl)-2-azaspiro[3.3]heptan-2-yl)methanone]",9.70
18,"O=C(N1CC(Oc2ccc(Cl)c(C3CC3)c2)C1)N1CC2(CC(n3cnc(C4CC4)n3)C2)C1 [Example 95, (3-(4-chloro-3-cyclopropylphenoxy)azetidin-1-yl)(6-(3-cyclopropyl-1H-1,2,4-triazol-1-yl)-2-azaspiro[3.3]heptan-2-yl)methanone]",8.92
19,"O=C(N1CC(Oc2ccc(C(F)(F)F)cc2F)C1)N1CC2(CC(n3cnc(C4CC4)n3)C2)C1 [Example 96, (6-(3-cyclopropyl-1H-1,2,4-triazol-1-yl)-2-azaspiro[3.3]heptan-2-yl)(3-(2-fluoro-4-(trifluoromethyl)phenoxy)azetidin-1-yl)methanone]",8.57
20,"Cc1ccc(OC2CN(C(=O)N3CC4(CC(n5cnc(C6CC6)n5)C4)C3)C2)c(Cl)c1 [Example 97, (3-(2-chloro-4-methylphenoxy)azetidin-1-yl)(6-(3-cyclopropyl-1H-1,2,4-triazol-1-yl)-2-azaspiro[3.3]heptan-2-yl)methanone]",8.47
21,"O=C(N1CC(Oc2ccc(Cl)cc2Cl)C1)N1CC2(CC(n3cnc(C4CC4)n3)C2)C1 [Example 98, (6-(3-cyclopropyl-1H-1,2,4-triazol-1-yl)-2-azaspiro[3.3]heptan-2-yl)(3-(2,4-dichlorophenoxy)azetidin-1-yl)methanone]",8.55
22,"O=C(N1CC(Oc2ccc(Cl)cc2F)C1)N1CC2(CC(n3cnc(C4CC4)n3)C2)C1 [Example 99, (3-(4-chloro-2-fluorophenoxy)azetidin-1-yl)(6-(3-cyclopropyl-1H-1,2,4-triazol-1-yl)-2-azaspiro[3.3]heptan-2-yl)methanone]",8.02
23,"Cc1ccc(OC2CN(C(=O)N3CC4(CC(n5cnc(C6CC6)n5)C4)C3)C2)c(Cl)n1 [Example 100, (3-((2-chloro-6-methylpyridin-3-yl)oxy)azetidin-1-yl)(6-(3-cyclopropyl-1H-1,2,4-triazol-1-yl)-2-azaspiro[3.3]heptan-2-yl)methanone]",7.10
24,"O=C(N1CC(OCc2ccc(C(F)(F)F)cc2)C1)N1CC2(CC(n3cnc(C4CC4)c3)C2)C1 [Example 101, [6-(4-cyclopropylimidazol-1-yl)-2-azaspiro[3.3]heptan-2-yl]-[3-[[4-(trifluoromethyl)phenyl]methoxy]azetidin-1-yl]methanone]",7.38
25,"O=C(N1CC(OCc2ccc(C(F)(F)F)cc2F)C1)N1CC2(CC(n3cnc(C4CC4)c3)C2)C1 [Example 102, [6-(4-cyclopropylimidazol-1-yl)-2-azaspiro[3.3]heptan-2-yl]-[3-[[2-fluoro-4-(trifluoromethyl)phenyl]methoxy]azetidin-1-yl]methanone]",7.29
26,"O=C(N1CC(OCc2ccc(C(F)(F)F)c(F)c2)C1)N1CC2(CC(n3cnc(C4CC4)c3)C2)C1 [Example 103, [6-(4-cyclopropylimidazol-1-yl)-2-azaspiro[3.3]heptan-2-yl]-[3-[[3-fluoro-4-(trifluoromethyl)phenyl]methoxy]azetidin-1-yl]methanone]",8.00
27,"O=C(N1CC(OCc2ccc(S(F)(F)(F)(F)F)cc2)C1)N1CC2(CC(n3cnc(C4CC4)c3)C2)C1 [Example 104, [6-(4-cyclopropylimidazol-1-yl)-2-azaspiro[3.3]heptan-2-yl]-[3-[[4-(pentafluoro-λ^6-sulfanyl)phenyl]methoxy]azetidin-1-yl]methanone]",8.01
28,"O=C(N1CC(OCc2ccc(S(F)(F)(F)(F)F)cc2F)C1)N1CC2(CC(n3cnc(C4CC4)c3)C2)C1 [Example 105, [6-(4-cyclopropylimidazol-1-yl)-2-azaspiro[3.3]heptan-2-yl]-[3-[[2-fluoro-4-(pentafluoro-λ^6-sulfanyl)phenyl]methoxy]azetidin-1-yl]methanone]",8.41
